From US11261136B2, “Triarylmethane compounds for controlling enzyme-induced urea decomposition” (priority 2017, dated 2022)
Where two headings read alike, the source gives them in different places.

Experiments:
urease enzyme [1] = assay: Nitrogen volatilization of 50:50 urea:water solutions (gas trap and FIA instrument)
Text: Various concentrations of Catechol Violet paired with polymer, were examined utilizing the gas trap and FIA instrument at Alltech (Sparta, Ill.). Treatment replicates are shown across the horizontal axis, and percent Nitrogen concentration (expressed as ammonia that has volatilized) is given in the vertical axis. For FIGS. 1, 2, 4A, and 4B, the treatments proceed in number order along the horizontal axis, moving from left to right, with the left being the lowest treatment number and the right being the highest treatment number. For FIGS. 3A and 3B, the treatments proceed as described above, with the exception of treatment 7, which is the farthest right along the horizontal axis. Briefly, the lower the amount of volatilized nitrogen, the greater the inhibition of the activity of the urease enzyme.
Each set of treatments includes:
• 1) An untreated control (50:50 urea:water, w/w). […] Concentrations and details of each treatment are given in the following paragraphs. 7.1—Three Day Results of Catechol Violet Solutions (FIG. 1)

urease enzyme [2] = settings: industry standard, added at 0.2% v/v of the urea solution; cited from earlier work
[3] = cited from earlier work
[4] = used with UAN; 87 trials and 487 comparisons; cited from earlier work
urease = urease (Canavalia ensiformis, UniProt P07374); settings: in solution; cited from earlier work
Chain of urease (P07374 whole entry, looked up): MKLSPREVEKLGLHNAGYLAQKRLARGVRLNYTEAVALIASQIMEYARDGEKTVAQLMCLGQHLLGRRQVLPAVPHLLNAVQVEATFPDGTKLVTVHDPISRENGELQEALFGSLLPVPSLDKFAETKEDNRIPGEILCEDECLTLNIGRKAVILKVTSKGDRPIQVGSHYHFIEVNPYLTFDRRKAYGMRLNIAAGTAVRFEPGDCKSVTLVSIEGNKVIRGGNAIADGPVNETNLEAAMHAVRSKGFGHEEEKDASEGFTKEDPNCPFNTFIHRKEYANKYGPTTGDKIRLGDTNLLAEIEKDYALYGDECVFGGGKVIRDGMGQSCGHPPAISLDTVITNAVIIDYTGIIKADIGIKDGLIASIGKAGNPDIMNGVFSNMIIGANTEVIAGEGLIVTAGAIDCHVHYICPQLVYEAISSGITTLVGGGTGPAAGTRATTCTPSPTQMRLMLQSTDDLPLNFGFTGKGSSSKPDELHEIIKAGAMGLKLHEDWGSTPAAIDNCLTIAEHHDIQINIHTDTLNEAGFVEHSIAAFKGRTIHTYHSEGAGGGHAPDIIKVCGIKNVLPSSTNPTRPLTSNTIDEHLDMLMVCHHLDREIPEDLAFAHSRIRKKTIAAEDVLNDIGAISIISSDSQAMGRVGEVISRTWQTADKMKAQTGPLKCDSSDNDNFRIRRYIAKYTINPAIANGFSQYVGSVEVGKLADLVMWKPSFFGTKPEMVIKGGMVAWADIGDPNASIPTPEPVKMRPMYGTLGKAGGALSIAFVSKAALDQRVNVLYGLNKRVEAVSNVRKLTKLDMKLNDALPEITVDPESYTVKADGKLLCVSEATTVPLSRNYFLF

jackbean urease enzyme [5] = biological target: T1, jackbean urease enzyme (Canavalia ensiformis, UniProt P07374); assay: Jackbean urease inhibition, Example 1 repeated with buffer at pH 7; format: biochemical
T1 construct: purchased
T1 sequence (P07374 whole entry, looked up): as above
Description: (§1) An aqueous solution containing 0.105 moles/L of monosodium phosphate was adjusted to a pH of 5.0 with sodium hydroxide. Suitable quantities of a solution of 3,3′,4-trihydroxysuchsone-2″-sulfonic acid were added, with stirring, to 19.0 mL of the above phosphate solution, to give a series of mixtures having the following concentrations of sulfonic acid: 100, 250, 500, 750, 1000, 2000, and 5000 ppb. Next, commercial jackbean urease enzyme solution of known concentration was added to each mixture to provide 40 units of enzyme per 50 mL of the mixture. The mixtures were allowed to stand for 5 hours in closed glass containers at 20° C., followed by the addition to each mixture of 1.00 mL of freshly prepared urea solution (2.00 moles/L), to give an overall reaction concentration of 0.100 moles/L of both urea and phosphate. These mixtures, containing phosphate, sulfonic acid, urease, and urea were deemed A mixtures.
(§2) Simultaneously, two more solutions were identically prepared, namely an enzyme-free control where both 3,3′,4-trihydroxysuchsone-2″-sulfonic acid and enzyme are omitted (mixture B), and an enzyme control where enzyme is present without any 3,3′,4-trihydroxysuchsone-2″-sulfonic acid (mixture C). Solution urea concentrations were measured immediately in each of the mixtures, and again after a 120-minute interval.
(§3) For purposes of these tests, the C mixture containing urease and urea was deemed to provide 0% inhibition, whereas the B mixture containing urea without urease was deemed to provide 100% inhibition.
Example 1 was repeated, but with the addition of a buffer to maintain a pH of 7.0 in all of the A, B, and C mixtures. The A mixtures contained the following amounts of the 3,3′,4-trihydroxysuchsone-2″-sulfonic acid: 100, 250, 500, 750, and 1000 ppb. It is known in the art that urease enzyme activity is greater and more difficult to inhibit at neutral pH, as compared with an acid pH, and that the much lower treatment levels would give less urease inhibition.

jackbean urease enzyme [6] = biological target: T1, jackbean urease enzyme; assay: biochemical; settings: pH 5
Description: as §1, §2, §3

CCCCNP(N)(N)=S [NBPT, N-(n-butyl) thiophosphoric triamide]
urease activity and N-loss through volatilization (FIGS. 3A and 3B) (urease enzyme [1]; NBPT (Agrotain Ultra) 0.2% v/v, three and seven day test): inhibits urease activity and N-loss through volatilization | 7-day N-loss via volatilization (FIG. 4B) (urease enzyme [1]; after 7 days, compared to untreated urea solution): continue to limit N-loss via volatilization when compared to the untreated urea solution | inhibition of N-volatilization (historical) (urease enzyme [2]): near-total inhibition of N-volatilization | NBPT content lost on storage ([3]; after six months): over 99% | NBPT content lost on storage ([3]; storage at 25° C. for three months): up to 40% | average improvement in yield [4]: about 1.6 bushels/acre | trials resulting in yield losses [4]: about 40%

O=C1C=CC(=O)C=C1 [benzoquinone]
concentration at which effective urease inhibitors (urease): about 1 ppm by weight

O=C1C=C/C(=C(/c2ccc(O)c(O)c2)c2ccccc2S(=O)(=O)O)C=C1O [3,3′,4-trihydroxysuchsone-2″-sulfonic acid]
inhibition at 0.1 ppm (jackbean urease enzyme [5]): 2% | inhibition at 0.25 ppm (jackbean urease enzyme [5]): 30% | inhibition at 0.5 ppm (jackbean urease enzyme [5]): 41% | inhibition at 0.75 ppm (jackbean urease enzyme [5]): 46% | inhibition at 1 ppm (jackbean urease enzyme [5]): 50% | inhibition at 0.1 ppm (jackbean urease enzyme [6]): 7% | inhibition at 0.25 ppm (jackbean urease enzyme [6]): 22% | inhibition at 0.5 ppm (jackbean urease enzyme [6]): 25% | inhibition at 0.75 ppm (jackbean urease enzyme [6]): 45% | inhibition at 1 ppm (jackbean urease enzyme [6]): 61% | inhibition at 2 ppm (jackbean urease enzyme [6]): 76% | inhibition at 5 ppm (jackbean urease enzyme [6]): 88%

Oc1ccccc1O [catechol]
concentration at which effective urease inhibitors (urease): about 1 ppm by weight
